Assay results taken from patent US11542259B2, “Compounds for the treatment of kinase-dependent disorders” (Exelixis, Inc., priority 2018, dated 2023).

How the values were obtained:
AXL = AXL (Homo sapiens (Human), UniProt P30530); experiment: AXL autophosphorylation ELISA in A-172 cells; type: cell-based; settings: cellular, Gas6 stimulated
How it was run: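 Serum-starved (24 h) A-172 glioblastoma cells pretreated 1 h with compounds (8-point curve, 0.3% DMSO), then stimulated 15 min with 1 μg/mL Gas6. Lysate phospho-AXL measured by sandwich ELISA against a phospho-AXL standard; IC50 from 4-parameter logistic fit between DMSO and reference-inhibitor controls.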

KDR = KDR (Homo sapiens (Human), UniProt P35968); experiment: KDR autophosphorylation ELISA in HUVEC cells; type: cell-based; settings: cellular, VEGF165 stimulated
How it was run: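 Serum-starved (24 h) primary HUVEC were pretreated 1 h with compounds (8-point dilution, 0.3% DMSO final), then stimulated 5 min with 100 ng/mL VEGF165. Lysate phospho-KDR quantified by sandwich ELISA against a phospho-KDR standard; IC50 by 4-parameter fit, normalised to stimulated DMSO and unstimulated controls.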

KDR, sequence (P35968 20-1356): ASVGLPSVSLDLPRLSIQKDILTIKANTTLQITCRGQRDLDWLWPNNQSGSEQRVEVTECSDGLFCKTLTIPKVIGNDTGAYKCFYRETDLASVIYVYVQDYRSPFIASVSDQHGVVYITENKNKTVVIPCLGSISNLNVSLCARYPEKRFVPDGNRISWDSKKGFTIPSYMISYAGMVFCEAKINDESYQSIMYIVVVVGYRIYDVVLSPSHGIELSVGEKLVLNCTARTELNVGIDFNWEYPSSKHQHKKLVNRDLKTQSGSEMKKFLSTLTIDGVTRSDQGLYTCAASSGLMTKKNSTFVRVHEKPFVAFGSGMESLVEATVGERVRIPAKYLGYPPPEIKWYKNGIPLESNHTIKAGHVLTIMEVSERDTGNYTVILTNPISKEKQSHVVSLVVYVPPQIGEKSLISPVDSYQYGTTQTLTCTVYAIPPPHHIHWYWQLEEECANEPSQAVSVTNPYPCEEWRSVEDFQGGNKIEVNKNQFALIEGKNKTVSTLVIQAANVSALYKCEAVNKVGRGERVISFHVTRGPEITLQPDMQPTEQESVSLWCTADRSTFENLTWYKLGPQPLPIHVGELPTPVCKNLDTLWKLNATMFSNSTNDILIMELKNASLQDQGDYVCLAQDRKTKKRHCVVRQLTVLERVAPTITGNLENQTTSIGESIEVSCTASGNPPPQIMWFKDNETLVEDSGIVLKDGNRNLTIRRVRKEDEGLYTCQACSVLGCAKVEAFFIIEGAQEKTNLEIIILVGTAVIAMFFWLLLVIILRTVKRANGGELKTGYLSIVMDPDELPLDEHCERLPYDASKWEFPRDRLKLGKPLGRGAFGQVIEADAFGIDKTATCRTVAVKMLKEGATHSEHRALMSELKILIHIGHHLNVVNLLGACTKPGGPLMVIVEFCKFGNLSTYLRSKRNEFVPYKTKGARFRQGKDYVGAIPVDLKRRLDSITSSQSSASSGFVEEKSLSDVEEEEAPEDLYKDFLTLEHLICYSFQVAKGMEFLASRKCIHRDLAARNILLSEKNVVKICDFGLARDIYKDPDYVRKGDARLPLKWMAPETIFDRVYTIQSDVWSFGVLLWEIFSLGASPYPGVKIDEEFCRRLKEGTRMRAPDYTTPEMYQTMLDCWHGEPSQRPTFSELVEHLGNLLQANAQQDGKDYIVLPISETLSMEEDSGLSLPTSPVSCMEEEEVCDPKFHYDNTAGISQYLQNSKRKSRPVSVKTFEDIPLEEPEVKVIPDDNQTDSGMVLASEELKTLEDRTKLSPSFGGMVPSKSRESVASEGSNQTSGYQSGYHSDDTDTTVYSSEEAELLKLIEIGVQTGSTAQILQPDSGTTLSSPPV
AXL, sequence (P30530 26-894): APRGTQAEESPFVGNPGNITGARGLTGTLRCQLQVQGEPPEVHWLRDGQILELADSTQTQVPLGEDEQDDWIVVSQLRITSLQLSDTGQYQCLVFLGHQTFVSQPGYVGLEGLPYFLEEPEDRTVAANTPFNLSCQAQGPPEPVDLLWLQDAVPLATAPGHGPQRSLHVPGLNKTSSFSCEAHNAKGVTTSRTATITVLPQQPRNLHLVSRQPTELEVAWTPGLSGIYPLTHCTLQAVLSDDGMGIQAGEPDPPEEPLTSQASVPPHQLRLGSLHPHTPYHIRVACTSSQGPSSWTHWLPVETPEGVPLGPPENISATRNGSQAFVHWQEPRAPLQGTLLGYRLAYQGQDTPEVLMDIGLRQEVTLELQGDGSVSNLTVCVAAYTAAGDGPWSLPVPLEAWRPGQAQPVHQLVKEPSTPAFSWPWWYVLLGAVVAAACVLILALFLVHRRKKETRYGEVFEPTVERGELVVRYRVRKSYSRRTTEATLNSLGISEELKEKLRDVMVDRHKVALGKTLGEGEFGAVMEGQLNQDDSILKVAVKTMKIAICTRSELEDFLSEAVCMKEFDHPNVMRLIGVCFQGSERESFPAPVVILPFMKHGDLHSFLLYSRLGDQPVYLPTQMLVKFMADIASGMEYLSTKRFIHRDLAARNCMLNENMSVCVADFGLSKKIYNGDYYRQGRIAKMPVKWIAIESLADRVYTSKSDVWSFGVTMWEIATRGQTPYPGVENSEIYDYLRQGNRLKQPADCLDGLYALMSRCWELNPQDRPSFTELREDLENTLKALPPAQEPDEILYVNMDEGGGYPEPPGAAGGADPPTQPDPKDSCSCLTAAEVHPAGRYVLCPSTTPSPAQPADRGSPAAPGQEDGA

Structure (SMILES) | IC50 (AXL) [nM] | IC50 (KDR) [nM]
COc1cc2nccc(Oc3ccc(NC(=O)C4(C(=O)Nc5ccc(F)cc5)CC4)cc3)c2cc1C(=O)NC1COC1 [Compound 13, 1-N′-(4-fluorophenyl)-1-N-[4-[7-methoxy-6-(oxetan-3-ylcarbamoyl)quinolin-4-yl]oxyphenyl]cyclopropane-1,1-dicarboxamide] | 10 to 100 | ≤ 10
COc1cc2nccc(Oc3ccc(NC(=O)C4(C(=O)Nc5ccc(F)cc5)CC4)cc3)c2cc1C(=O)NC1CN(C)C1 [Compound 14, 1-N′-(4-fluorophenyl)-1-N-[4-[7-methoxy-6-[(1-methylazetidin-3-yl)carbamoyl]quinolin-4-yl]oxyphenyl]cyclopropane-1,1-dicarboxamide] | ≤ 10 | 10 to 100
COc1cc2nccc(Oc3ccc(NC(=O)C4(C(=O)Nc5ccc(F)cc5)CC4)cc3)c2cc1C(=O)N1CCC1 [Compound 15, 1-N-[4-[6-(azetidine-1-carbonyl)-7-methoxyquinolin-4-yl]oxyphenyl]-1-N′-(4-fluorophenyl)cyclopropane-1,1-dicarboxamide] | 10 to 100 | > 300
COc1cc2nccc(Oc3ccc(NC(=O)C4(C(=O)Nc5ccc(F)cc5)CC4)cc3)c2cc1C(=O)N1CC(O)C1 [Compound 16, 1-N′-(4-fluorophenyl)-1-N-[4-[6-(3-hydroxyazetidine-1-carbonyl)-7-methoxyquinolin-4-yl]oxyphenyl]cyclopropane-1,1-dicarboxamide] | 10 to 100 | 100 to 300
CN1CC(NC(=O)c2ccc3nccc(Oc4ccc(NC(=O)C5(C(=O)Nc6ccc(F)cc6)CC5)cc4)c3c2)C1 [Compound 60, 1-N′-(4-fluorophenyl)-1-N-[4-[6-[(1-methylazetidin-3-yl)carbamoyl]quinolin-4-yl]oxyphenyl]cyclopropane-1,1-dicarboxamide] | 100 to 300 | > 300
COCCOc1cc2nccc(Oc3ccc(NC(=O)C4(C(=O)Nc5ccc(F)cc5)CC4)cc3)c2cc1C(N)=O [Compound 103, 1-N-[4-[6-carbamoyl-7-(2-methoxyethoxy)quinolin-4-yl]oxyphenyl]-1-N′-(4-fluorophenyl)cyclopropane-1,1-dicarboxamide] | ≤ 10 | ≤ 10

The next lines start with the values.

IC50 (AXL) [nM] | IC50 (KDR) [nM] | Structure (SMILES)
10 to 100 | ≤ 10 | COC(=O)c1cc2c(Oc3ccc(NC(=O)C4(C(=O)Nc5ccc(F)cc5)CC4)cc3)ccnc2cc1OC [Compound 5, methyl 4-[4-[[1-[(4-fluorophenyl)carbamoyl]-cyclopropanecarbonyl]amino]-phenoxy]-7-methoxyquinoline-6-carboxylate]
10 to 100 | 10 to 100 | COc1cc2nccc(Oc3ccc(NC(=O)C4(C(=O)Nc5ccc(F)cc5)CC4)cc3)c2cc1C#N [Compound 37, 1-N-[4-(6-cyano-7-methoxyquinolin-4-yl)oxyphenyl]-1-N′-(4-fluorophenyl)cyclopropane-1,1-dicarboxamide]
10 to 100 | 100 to 300 | NC(=O)c1ccc2nccc(Oc3ccc(NC(=O)C4(C(=O)Nc5ccc(F)cc5)CC4)cc3)c2c1 [Compound 58, 1-N-[4-(6-carbamoylquinolin-4-yl)oxyphenyl]-1-N′-(4-fluorophenyl)cyclopropane-1,1-dicarboxamide]
100 to 300 | 100 to 300 | CNC(=O)c1ccc2nccc(Oc3ccc(NC(=O)C4(C(=O)Nc5ccc(F)cc5)CC4)cc3)c2c1 [Compound 59, 1-N′-(4-fluorophenyl)-1-N-[4-[6-(methylcarbamoyl)quinolin-4-yl]oxyphenyl]cyclopropane-1,1-dicarboxamide]
100 to 300 | 100 to 300 | NC(=O)c1cc2c(Oc3ccc(NC(=O)C4(C(=O)Nc5ccc(F)cc5)CC4)cc3)ccnc2cc1F [Compound 67, 1-N-[4-(6-carbamoyl-7-fluoroquinolin-4-yl)oxyphenyl]-1-N′-(4-fluorophenyl)cyclopropane-1,1-dicarboxamide]
